These results are taken from ChEMBL document CHEMBL1201862, “PubChem BioAssay data set” (2004).

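Following 48 hours of exposure in 96-well plates, responses at five concentrations were used to interpolate endpoints linearly. Here, GI50 denotes the concentration required for 50% inhibition of growth.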 The source made the active and inactive calls. No stated cut-off is given here; in the data, active = GI50 up to about 1.1 µM and inactive = higher.

Test systems include OVCAR-8; OVCAR-4; A549; SNB-75; OVCAR-3; UACC-62; Hs-578T; NCI-H23; NCI-H460; IGROV-1; EKVX; SF-539; HOP-92; MOLT-4; 786-0; U-251; SW-620; SNB-19; HCC 2998; PC-3.
Assay in all cases: NCI-60 cell line screen, 48 h

Turning to `O=C1CC(=O)c2c(Cl)sc(Cl)c21`, the GI50 in the test with OVCAR-8 is 52.2 µM (inactive); in the test on OVCAR-4 it was 29.2 µM (inactive); with A549, 87.1 µM (inactive); in the test with SNB-75, > 100 µM (inactive); in the test on OVCAR-3, 86.5 µM (inactive); in the test on UACC-62 it was 92.3 µM (inactive). Besides, the GI50 with Hs-578T is 33.8 µM (inactive); in the test with NCI-H23, 51.6 µM (inactive); in the test with NCI-H460, > 100 µM (inactive); with IGROV-1, > 100 µM (inactive); in the test with EKVX, > 100 µM (inactive); in the test on SF-539 it was > 100 µM (inactive). Besides, the GI50 in the test with HOP-92 is > 100 µM (inactive); in the test with MOLT-4 it was 34.1 µM (inactive); in the test with 786-0, > 100 µM (inactive); in the test on U-251, > 100 µM (inactive); with SW-620, 91 µM (inactive).
For `COc1ccc2c(c1)OCC1Cc3cc4c(cc3OC21)OCO4` (stereo not drawn), the GI50 was > 100 µM (inactive) in the test with SNB-19; 45 µM (inactive) with OVCAR-8; 38.8 µM (inactive) in the test with A549; 47.9 µM (inactive) in the test with OVCAR-3; 31.3 µM (inactive) with UACC-62; > 100 µM (inactive) in the test on NCI-H23. The GI50 is 43 µM (inactive) in the test with IGROV-1; 41.1 µM (inactive) in the test with EKVX; 44.6 µM (inactive) in the test on HCC 2998; 41.6 µM (inactive) in the test with PC-3; 39.6 µM (inactive) with SF-539; > 100 µM (inactive) with HOP-92. Further, the GI50 was 36.8 µM (inactive) in the test with MOLT-4, 34.8 µM (inactive) in the test with 786-0, 42.6 µM (inactive) with U-251 and 35.7 µM (inactive) in the test on SW-620.
With `CCOC(=O)c1cc(-c2cc(OC)c(OC)c([N+](=O)[O-])c2)c([N+](=O)[O-])n1C`, the GI50 in the test with SNB-19 was > 10 µM (inactive); in the test with OVCAR-8, > 10 µM (inactive); with OVCAR-4, > 10 µM (inactive); with A549, > 10 µM (inactive); in the test with SNB-75, > 10 µM (inactive); in the test with OVCAR-3, 7.67 µM (inactive). Further, the GI50 with UACC-62 is 3.53 µM (inactive); in the test with Hs-578T, 4.21 µM (inactive); in the test with NCI-H23, 6.37 µM (inactive); with NCI-H460, 3.9 µM (inactive); with IGROV-1, 5.9 µM (inactive); with EKVX, > 10 µM (inactive). Also, the GI50 in the test with HCC 2998 is 3.26 µM (inactive); with SF-539, 8.32 µM (inactive); in the test on HOP-92, > 10 µM (inactive); with MOLT-4 it was 3.5 µM (inactive); with 786-0, > 10 µM (inactive); in the test with U-251 it was 4.26 µM (inactive).
As to `CN1C(=O)C(O)CC1c1cccc(F)c1` (stereo not drawn), the GI50 with SNB-19 is > 100 µM (inactive); with OVCAR-8, > 100 µM (inactive); with OVCAR-4, > 100 µM (inactive); in the test on A549, > 100 µM (inactive); in the test with SNB-75, 55.7 µM (inactive); with OVCAR-3 it was > 100 µM (inactive). The GI50 with UACC-62, in the test with NCI-H23, with NCI-H460, in the test on IGROV-1, in the test on EKVX and in the test with HCC 2998 was > 100 µM (inactive) each time. The GI50 in the test with PC-3, in the test on SF-539, with HOP-92, in the test with MOLT-4, with 786-0 and with U-251 was > 100 µM (inactive) in each case. Further, the GI50 in the test on SW-620 is > 100 µM (inactive).
Take `COc1ccc2c(C(=O)c3cn(CCN4CCOCC4)c4ccccc34)cccc2c1`: the GI50 in the test with OVCAR-8 was 43 µM (inactive); with OVCAR-4, 12.6 µM (inactive); in the test on A549, 6.76 µM (inactive); with SNB-75, 88.5 µM (inactive); with OVCAR-3, 13.6 µM (inactive); with UACC-62 it was > 29.6 µM (inactive). Also, the GI50 in the test on NCI-H23 is > 100 µM (inactive); in the test with NCI-H460 it was 4.65 µM (inactive); with IGROV-1, > 91 µM (inactive); in the test on EKVX, > 48.2 µM (inactive); with HCC 2998 it was 41.7 µM (inactive); with PC-3, 30.8 µM (inactive). Also, the GI50 was > 80 µM (inactive) in the test with SF-539; > 100 µM (inactive) in the test on HOP-92; 15.1 µM (inactive) in the test with MOLT-4; > 20.8 µM (inactive) in the test on 786-0; 7.33 µM (inactive) with U-251; 31 µM (inactive) in the test on SW-620.
For `COC(=O)c1cc(NC(=O)c2cc(NC(=O)c3cc([N+](=O)[O-])cn3C)cn2C)cn1C`, the GI50 in the test with SNB-19 is 59.6 µM (inactive); with OVCAR-8, > 100 µM (inactive); in the test on OVCAR-4, 40 µM (inactive); in the test on A549, > 100 µM (inactive); in the test with SNB-75 it was > 100 µM (inactive); in the test with OVCAR-3 it was > 100 µM (inactive). Also, the GI50 in the test with UACC-62 is 55.6 µM (inactive); with NCI-H23, 30.8 µM (inactive); in the test with NCI-H460, 40.3 µM (inactive); with IGROV-1, 0.0147 µM (active); in the test with EKVX it was 34.1 µM (inactive); with PC-3 it was 94.2 µM (inactive). Besides, the GI50 in the test on SF-539 is > 100 µM (inactive); with HOP-92 it was 14.3 µM (inactive); in the test with MOLT-4, 29.8 µM (inactive); in the test with 786-0 it was > 100 µM (inactive); in the test on U-251, 36.8 µM (inactive); in the test with SW-620, > 100 µM (inactive).
As for `CCOC(=O)CCC(NC(=O)c1ccc(/N=C/c2nc3cc(C(F)(F)F)ccc3nc2-c2ccccc2)cc1)C(=O)OCC` (stereo not drawn), the GI50 in the test with SNB-19 was 10.6 µM (inactive); in the test on OVCAR-8 it was 7.33 µM (inactive); in the test with OVCAR-4, 11.5 µM (inactive); with A549 it was 25.1 µM (inactive); with SNB-75, 5.04 µM (inactive); in the test on OVCAR-3, 46.6 µM (inactive). Moreover, the GI50 in the test on UACC-62 was 12.2 µM (inactive); in the test on NCI-H23, 7.82 µM (inactive); in the test on NCI-H460, 24 µM (inactive); in the test with IGROV-1, 15.3 µM (inactive); in the test with EKVX, 28.9 µM (inactive); in the test on HCC 2998, > 50 µM (inactive). Further, the GI50 is > 50 µM (inactive) in the test on PC-3; 11.4 µM (inactive) with SF-539; 4.88 µM (inactive) with HOP-92; > 50 µM (inactive) with MOLT-4; 7.38 µM (inactive) with 786-0; 6.07 µM (inactive) in the test on U-251. Also, in the test on SW-620, the GI50 was > 50 µM (inactive).
For `CCOc1ccccc1NC(=O)C(=O)CC(=O)c1c(C)[n+]([O-])c2ccccc2[n+]1[O-]`, the GI50 with SNB-19 was 69.2 µM (inactive); in the test with OVCAR-8 it was > 100 µM (inactive); with OVCAR-4, > 100 µM (inactive); in the test with A549 it was > 100 µM (inactive); with SNB-75, > 100 µM (inactive); in the test on OVCAR-3, 25.2 µM (inactive). The GI50 was > 100 µM (inactive) with UACC-62; 65 µM (inactive) with NCI-H23; 81.7 µM (inactive) in the test with NCI-H460; > 100 µM (inactive) in the test with IGROV-1; > 100 µM (inactive) in the test on EKVX; > 100 µM (inactive) in the test on HCC 2998. Moreover, the GI50 with SF-539, in the test with HOP-92, with MOLT-4, in the test on 786-0, in the test on U-251 and with SW-620 was > 100 µM (inactive) each time.
For the compound `c1ccc(-n2nc3ccc4nonc4c3n2)cc1`, the GI50 is 45.9 µM (inactive) in the test with SNB-19; > 100 µM (inactive) in the test on OVCAR-8; > 100 µM (inactive) with OVCAR-4; > 100 µM (inactive) with A549; 49.1 µM (inactive) in the test with SNB-75; > 100 µM (inactive) in the test with OVCAR-3. In addition, the GI50 was > 100 µM (inactive) in the test on UACC-62; > 100 µM (inactive) in the test with NCI-H23; > 100 µM (inactive) in the test on NCI-H460; > 100 µM (inactive) in the test on IGROV-1; 44.6 µM (inactive) in the test on EKVX; > 100 µM (inactive) in the test on HCC 2998. For the same compound, the GI50 with PC-3, in the test on SF-539, with HOP-92, in the test with MOLT-4, in the test with 786-0 and in the test on U-251 was > 100 µM (inactive) throughout. The GI50 in the test on SW-620 is > 100 µM (inactive).
Turning to `CC(=O)NC1=C(NCCC(C)C)C(=O)c2ccccc2C1=O`, the GI50 in the test with SNB-19, in the test with OVCAR-8, in the test on OVCAR-4, with A549, in the test on SNB-75 and in the test with OVCAR-3 was > 50 µM (inactive) in each case. The GI50 in the test on UACC-62, with NCI-H23, in the test on NCI-H460, with IGROV-1, in the test on EKVX and in the test on HCC 2998 was > 50 µM (inactive) throughout. In addition, the GI50 in the test with SF-539, in the test with HOP-92, with MOLT-4, in the test on 786-0, in the test with U-251 and in the test on SW-620 was > 50 µM (inactive) throughout.
For the compound `NC(=O)c1c2c(cc3c(=O)c4ccccc4[nH]c13)CCCC2`, the GI50 in the test with SNB-19 is > 71.4 µM (inactive); in the test with OVCAR-8, > 97.3 µM (inactive); in the test on OVCAR-4, > 100 µM (inactive); in the test with A549, > 100 µM (inactive); in the test on SNB-75, 43.1 µM (inactive); with OVCAR-3, > 100 µM (inactive). Also, the GI50 in the test with UACC-62 is > 100 µM (inactive); in the test with NCI-H23, > 93.3 µM (inactive); in the test on NCI-H460 it was > 100 µM (inactive); with IGROV-1, > 100 µM (inactive); in the test on EKVX it was > 100 µM (inactive); in the test with HCC 2998, > 100 µM (inactive). In addition, the GI50 in the test on SF-539 was > 100 µM (inactive); in the test on HOP-92, > 100 µM (inactive); with MOLT-4 it was > 61.2 µM (inactive); with 786-0, > 69.3 µM (inactive); in the test on U-251, > 100 µM (inactive); in the test on SW-620, > 100 µM (inactive).
